For assay [1], the system named is ICR mice injected with bleomycin. Nature of the assay: Bleomycin-induced mouse pulmonary fibrosis, histological score of lung tissue. Conditions: AKF-PD and PFD 500 mg/kg, captopril 12.5 mg/kg by gavage day 1 to 28, Szapiel's method. In kind it is in vivo. On the procedure:
Under regular care condition, 7-10 weeks old, male, institute of cancer research (ICR) mice, weight 28-39 g, were randomly grouped as normal control, disease, disease/AKF-PD, disease/PFD and disease Captopril group.
Control group was injected with normal saline once day from day 2 to 15 days. Disease, disease/AKF-PD, disease/PFD and disease/captopril groups were injected with bleomycin once day from day 2 to 15. Control and disease groups were given 0.5% CMC by gavage once a day from day 1 to day 28. 500 mg/kg of AKF-PD CMC suspension and PD CMC suspension and 12.5 mg/kg captopril in saline were administered to respective groups by gavage once day from day 1 to day 28. All animals were sacrificed on day 29 and their lungs were removed for pathological (HE staining) examination.
Histological scoring for the lung tissue was done according Szapiel's method.

The subject of assay [2] is fibroblast. Nature of the assay: Inhibition of fibroblast, side-by-side comparison of substituents. In kind it is cell-based. Particulars: structural formula II, n=1.
Assay [3] relates to Kidney Fibroblast. The assay is described as follows: MTT proliferation assay, mouse kidney fibroblast. In kind it is cell-based. As for the experimental part:
(§1) Cell proliferation was measured by MTT assay. DMEM with 10% fetal serum was used as cell culture medium. The cells were prepared in suspension (1×10^5/ml), and 100 μL of the suspension was transferred to each well of a 96 wells plate. Once the cells were attached to the plastic, the culture was changed to serum free medium and continued for another 24 hours. The serum free medium was aspirated, and various concentrations of 1-(3′-fluorophenyl)-5-methyl-2(1H)-pyridone (AKF-PD) 1-(3′-bromophenyl)-5-methyl-2(1H)-pyridone (AKF-BR) or PIRFENIDONE (PFD) in 10% serum medium were added into each well with 5 replicates for each concentration. The cells were stained with MTT (10 μL per well) at 24, 48, and 72 hours post drug treatment. After 4 hrs of incubation, the medium with MTT was aspirated from each well. One hundred μL MTT solvent was added to each well for 15 min. The dissolved MTT was then measured with a plate reader at 570 nm.
(In general: Tetrazolium assays rely on reduction of a dye to a coloured formazan, in cell work by metabolically active cells.)

For assay [4], the system named is Rat Pulmonary Fibroblasts. Nature of the assay: MTT proliferation assay, rat pulmonary fibroblasts. In kind it is cell-based. On the procedure: as §1, with “and incubated” for “and continued”, “hours. Then, the” for “hours. The”, “(AKF-PD) or 1-(3′-bromophenyl)-5-Methyl-2(1H)-Pyridone” for “(AKF-PD) 1-(3′-bromophenyl)-5-methyl-2(1H)-pyridone (AKF-BR)”, “24, or 48” for “24, 48, and 72”, “15 min, and the” for “15 min. The”, “was” for “was then”

The subject of assay [5] is SD rat, Unilateral Ureteral Obstruction (UUO) model. Nature of the assay: Rat UUO model of renal interstitial fibrosis, histological score (Example 8). In kind it is in vivo. Conditions: UUO rats; AKF-PD 500 mg/kg/d, Enalapril 10 mg/kg/d by gavage; 14 days post surgery; Radford's method. As for the experimental part: Anti-fibrotic effect of AKF-PD was tested on a SD rat model for renal interstitial fibrosis induced by surgical ligation of single side ureter (Unilateral Ureteral Obstruction, UUO, model). Eight weeks old male SD rats (180 g˜220 g) were randomly divided into sham surgical group, disease model group, Enalapril (10 mg/kg/d) group and AKF-PD (500 mg/kg/d) group. […] The animals of the sham surgical group experienced the same surgical procedure except the ligation step. The respective drugs were administrated by gavage to rats in the groups of Enalapril and AKF-PD from one day prior to the procedure to 14 days post surgical procedure. Normal saline was administrated in a similar fashion to the rats in the groups of disease model and sham surgical. The animals were sacrificed 14 days after surgical procedure and their left kidney were removed for pathological (HE staining) examination. Histological scoring for interstitial compartment was done according to Radford's method (Radford et al., Predicting renal outcome in IgA nephropathy. J. Am. Soc. Nephrol. 8: 199-207(1997)).

The test system of assay [6] is Kun Ming (KM) mice infected with Schistosoma miracidium. The assay is described as follows: Schistosomial liver fibrosis in Kun Ming mice, egg granuloma area and immunohistology. In kind it is in vivo. Particulars: all after Pyquiton 650 mg/kg 4 days, AKF-PD 500 mg/kg daily gavage, γ-interferon 50,000 unit daily i.m., 8 weeks. An excerpt: Kun Ming (KM) mice were infected with Schistosoma miracidium to induce schistosomial liver fibrosis. […] Ten Schistosoma miracidium were placed on shaved abdominal skin of each mouse for infection. […] Five hundred mg/kg AKF-PD were given daily by gavage to the disinfected mice of infected/AKF-PD group. The disinfected mice were given (i.m.) 50,000 unit γ-interferon daily. […] Drug or normal saline treatment was continued for 8 weeks. All mice were sacrificed one week after discontinue of drug treatment, and the left lobe of liver from each mouse was taken for pathological examination. Examination of HE-stained slices of liver tissue were carried out as follows. In general, after 16 weeks of Schistosoma miracidia infection, the area of schistosomo egg granuloma would directly correlate to the severity of liver fibrosis. Therefore, the area of schistosomo egg granuloma was measured using a high-resolution, color pathology graphic analyzer (HPIAS-1000). The sum of area of 5 granuloma with abundant eggs and the sum of area of 5 granuloma with few eggs were measured for each slice.

Consider `C[C@H](CS)C(=O)N1CCC[C@H]1C(=O)O` [Captopril], for which, in assay [1], the “Histological Score for Lung Tissue, Mean” value amounted to 2.7143.

On to `Cc1ccc(=O)n(-c2cccc(I)c2)c1` [1-(3′-iodophenyl)-5-methyl-2(1H)-pyridone], for which the activity inhibiting fibroblast result in assay [2] is “activities inhibiting fibroblast”.

Take `Cc1cccc(-n2cc(C)ccc2=O)c1` [5-methyl-1-(3′-methylphenyl)-2(1H)-pyridone]: the activity inhibiting fibroblast result in assay [2] is reported as “activities inhibiting fibroblast”.

On to `Cc1ccc(=O)n(-c2cccc(Br)c2)c1` [AKF-BR, 1-(3′-bromophenyl)-5-methyl-2(1H)-pyridone], for which, in assay [3], the “inhibition of proliferation of kidney fibroblast” value is given as “capable of inhibiting the proliferation of kidney fibroblast”. The “Optical Density at 570 nm” value worked out at 0.5937 ± 0.0307 in assay [3] (100 μg/ml, 24 h); 0.5811 ± 0.0161 in assay [3] (100 μg/ml, 48 h); 0.5363 ± 0.0158 in assay [3] (100 μg/ml, 72 h); 0.5895 ± 0.0253 in assay [3] (500 μg/ml, 24 h); 0.5418 ± 0.0221 in assay [3] (500 μg/ml, 48 h); 0.4731 ± 0.0249 in assay [3] (500 μg/ml, 72 h). Further, the “Optical Density at 570 nm” value in assay [3] (1000 μg/ml, 24 h) is 0.5723 ± 0.0254; in assay [3] (1000 μg/ml, 48 h), 0.5192 ± 0.0178; in assay [3] (1000 μg/ml, 72 h) it was 0.4161 ± 0.0249; in assay [4] (100 μg/ml, 24 h), 0.1654 ± 0.0143; in assay [4] (100 μg/ml, 48 h), 0.1475 ± 0.0211; in assay [4] (500 μg/ml, 24 h), 0.1342 ± 0.0237. The “Optical Density at 570 nm” value in assay [4] (500 μg/ml, 48 h) worked out at 0.1292 ± 0.0178; in assay [4] (1000 μg/ml, 24 h), 0.1204 ± 0.0176; in assay [4] (1000 μg/ml, 48 h) it was 0.1201 ± 0.0342. Moreover, the “order of inhibitory effect” value in assay [3] (kidney fibroblast) and in assay [4] (rat pulmonary fibroblasts) was “AKF-PD>AKF-BR>pirfenidone” each time. Moreover, the “suppression of proliferation of rat pulmonary fibroblasts” value in assay [4] is listed as “could suppress proliferation of rat pulmonary fibroblasts”. Also, the activity inhibiting fibroblast result in assay [2] is recorded as “activities inhibiting fibroblast”.

Turning to `CCOC(=O)[C@H](CCc1ccccc1)N[C@@H](C)C(=O)N1CCC[C@H]1C(=O)O` [Enalapril, reference compound], in assay [5], the “Histological Score for Interstitial Compartment” value was determined as 9.21 ± 0.64.

B1: γ-interferon: γ-interferon given i.m. 50,000 unit daily to disinfected mice (protein, UniProt P01580 23-155, looked up)
Interferon gamma: HGTVIESLESLNNYFNSSGIDVEEKSLFLDIWRNWQKDGDMKILQSQIISFYLRLFEVLKDNQAISNNISVIESHLITTFFSNSKAKKDAFMSIAKFEVNNPQVQRQAFNELIRVVHQLLPESSLRKRKRSRC
For B1, the “Schistosomo Egg Granuloma Area, Mean” value is reported as 83706.79 μm^2 in assay [6] (granuloma with abundant eggs) and 32407.14 μm^2 in assay [6] (granuloma with few eggs).
